Results on seven compounds are retold here after patent US8815837B2, “Respiratory disease treatment” (Pulmagen Therapeutics (Inflammation) Limited, priority 2008, dated 2014).

Data set [1] concerns Tobacco Smoke Induced Pulmonary Inflammation. The data set can be described thus: Pre-clinical mouse model of COPD inflammation: tobacco smoke induced pulmonary inflammation, BAL cell counts. The data set is classed as in vivo. The conditions noted are these: mice, intranasal, BAL 24 h after final TS exposure. From the text:
Pre-Clinical Mouse Model of COPD Inflammation—Tobacco Smoke Induced Pulmonary Inflammation
Protocols for the exposure of mice to TS, obtaining bronchoalveolar lavage (BAL), preparation of cytospin slides for differential cell counts are as outlined below.
Exposure of Mice to TS Daily for 4 or 11 Consecutive Days
In this exposure protocol, mice were exposed in groups of 5 in individual clear polycarbonate chambers (27 cm×16 cm×12 cm). The TS from the cigarettes was allowed to enter the exposure chambers at a flow rate of 100 ml/min. In order to minimise any potential problems caused by repeated exposure to a high level of TS (6 cigarettes), the exposure of the mice to TS was increased gradually over the exposure period to a maximum of 6 cigarettes. The exposure schedule used for 4 days was as follows:
The exposure schedule used for 11 days exposure was as follows:
A further group of mice were exposed to air on a daily basis for equivalent lengths of time as controls (no TS exposure).
Bronchoalveolar Lavage (BAL) Analysis
Bronchoalveolar lavage was performed as follows: the trachea was cannulated using a Portex nylon intravenous cannula (pink luer fitting) shortened to approximately 8 mm. Phosphate buffered saline (PBS) was used as the lavage fluid. A volume of 0.4 ml was gently instilled and withdrawn 3 times using a 1 ml syringe and then placed in an Eppendorf tube and kept on ice prior to subsequent determinations.
Lavage fluid was separated from cells by centrifugation and the supernatant decanted and frozen for subsequent analysis. The cell pellet was re-suspended in a known volume of PBS and total cell numbers calculated by counting a stained (Turks stain) aliquot under a microscope using a haemocytometer.
Differential Cell Counts were Performed as Follows:
The residual cell pellet was diluted to approximately 10^5 cells per ml. A volume of 500 μl was placed in the funnel of a cytospin slide and centrifuged for 8 min at 800 rpm. The slide was air dried and stained using ‘Kwik-Diff’ solutions (Shandon) as per the proprietary instructions. When dried and cover-slipped, differential cells were counted using light microscopy. Up to 400 cells were counted by unbiased operator using light microscopy. Cells were differentiated using standard morphometric techniques.
Rodents such as mice and rats are obligate nasal breathers thus oral delivery of test materials (such as therapeutic agents) for inhalation will not produce good lung exposure. As a consequence, delivery of therapeutic agents to the lungs in rodents is generally achieved by intra-nasal, intra-tracheal or inhalation by whole body aerosol exposure in a chamber.
The chamber method utilises large amounts of test material and is generally reserved for inhalation toxicology studies rather than pharmacological efficacy studies. Intra-tracheal administration is a very efficient delivery method as almost all of the test material is delivered to the lungs, but this is quite an invasive technique. For studies in the mouse particularly, it is also quite technically demanding as the diameter of the trachea is quite small. The intranasal route is less invasive than the intra-tracheal route and so is particularly suitable for repeat dosing studies such as the 4-11 day mouse model described below.
The control group of mice received vehicle 1 hr prior to being exposed to air daily for a maximum of 50 minutes per day. BAL was performed 24 h following the final TS exposure. All compounds were dosed as the HCl salt with doses corrected as base.
[…]
Data Management and Statistical Analysis
All results are presented as individual data points for each animal and the mean value was calculated for each group.

Another data set deals with T1, PPARγ receptor (Homo sapiens, UniProt P37231).
T1 sequence (P37231 1-505): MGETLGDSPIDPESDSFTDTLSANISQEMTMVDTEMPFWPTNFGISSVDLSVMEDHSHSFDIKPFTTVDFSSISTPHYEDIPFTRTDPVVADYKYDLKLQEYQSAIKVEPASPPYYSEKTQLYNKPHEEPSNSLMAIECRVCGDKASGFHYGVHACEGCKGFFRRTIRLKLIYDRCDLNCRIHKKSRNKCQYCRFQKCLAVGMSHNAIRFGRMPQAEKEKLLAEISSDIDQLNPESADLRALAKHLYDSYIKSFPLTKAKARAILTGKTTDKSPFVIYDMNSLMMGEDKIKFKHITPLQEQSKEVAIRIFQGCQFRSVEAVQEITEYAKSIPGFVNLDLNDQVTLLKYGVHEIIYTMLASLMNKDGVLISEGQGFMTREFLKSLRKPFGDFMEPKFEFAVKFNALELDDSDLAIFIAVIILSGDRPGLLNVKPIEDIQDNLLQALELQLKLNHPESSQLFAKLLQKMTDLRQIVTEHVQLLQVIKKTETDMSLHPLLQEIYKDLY
The conditions noted are these: page 13 of WO2007100027; cited from earlier work.

The subject of a further data set is rodent diabetes model. Conditions: oral administration; cited from earlier work.
The conditions of data set [2]: cited from earlier work.
[3] abbreviates: 1 μg/kg, pioglitazone experiment, FIG. 1.
Setting [4] is: 1 μg/kg, pioglitazone experiment, FIG. 2.
[5] abbreviates: 3 μg/kg, pioglitazone experiment, FIG. 1.
The mark [6] stands for this setting: 3 μg/kg, pioglitazone experiment, FIG. 2.
The mark [7] stands for this setting: 3 μg/kg, rosiglitazone experiment, FIG. 3.
The mark [8] stands for this setting: 3 μg/kg, rosiglitazone experiment, FIG. 4.
Where [9] appears, read: 10 μg/kg, rosiglitazone experiment, FIG. 3.
Where [10] appears, read: 10 μg/kg, rosiglitazone experiment, FIG. 4.

Molecules are shown by their SMILES.

Regarding `CCc1ccc(CCOc2ccc(C[C@H]3SC(=O)NC3=O)cc2)nc1.Cl` [Example 4, (5R)-5-{4-[2-(5-ethylpyridin-2-yl)ethoxy]benzyl}-1,3-thiazolidine-2,4-dione hydrochloride], the “BAL cell influx (total BAL cells) induced by TS” value (shortened to “BAL cell influx”) in data set [1] (setting [3]) and in data set [1] (setting [5]) was “significantly inhibited” throughout. Also, the “BAL neutrophil numbers induced by TS exposure” value (from here on “BAL neutrophil numbers induced”) in data set [1] (setting [4]) and in data set [1] (setting [6]) was “significantly inhibited” throughout.

In the case of `COc1ccc2nc(COc3ccc(CC4SC(=O)NC4=O)cc3)n(C)c2c1` (centres unmarked) [Rivoglitazone], the “receptor binding affinity, 5S versus 5R enantiomer” value at PPARγ receptor is reported as 5S enantiomer also has higher receptor binding affinity than the 5R enantiomer.

Regarding `CCc1ccc(CCOc2ccc(CC3SC(=O)NC3=O)cc2)nc1` (racemic) [Racemic pioglitazone, 5-{4-[2-(5-ethylpyridin-2-yl)ethoxy]benzyl}-1,3-thiazolidine-2,4-dione, reference compound], in the data set on rodent diabetes model, the “activity of racemate versus individual enantiomers in a rodent diabetes model” value is listed as “no difference in activity”. Also, the “interconversion of the two enantiomers in vivo” value in data set [2] is recorded as “interconvert in vivo”. For the same compound, the “BAL cell influx” value in data set [1] (setting [5]) is recorded as “significantly inhibited”. In data set [1] (setting [6]), the “BAL neutrophil numbers induced” value is on record as “significantly inhibited”.

For the compound `CN(CCOc1ccc(C[C@H]2SC(=O)NC2=O)cc1)c1ccccn1.Cl` [Example 8, (5R)-5-(4-{2-[methyl(pyridin-2-yl)amino]ethoxy}benzyl)-1,3-thiazolidine-2,4-dione hydrochloride], the “BAL cell influx” value in data set [1] (setting [7]) and in data set [1] (setting [9]) was “significantly inhibited” in each case. Besides, the “BAL neutrophil numbers induced” value in data set [1] (setting [8]) and in data set [1] (setting [10]) was “significantly inhibited” each time.

For `CCc1ccc(CCOc2ccc(C[C@@H]3SC(=O)NC3=O)cc2)nc1.Cl` [Example 6, (5S)-5-{4-[2-(5-ethylpyridin-2-yl)ethoxy]benzyl}-1,3-thiazolidine-2,4-dione hydrochloride], the “BAL cell influx” value in data set [1] (setting [3]) and in data set [1] (setting [5]) was “failed to inhibit” in each case. Moreover, the “BAL neutrophil numbers induced” value in data set [1] (setting [4]) and in data set [1] (setting [6]) was “ineffective” throughout.

Consider `CN(CCOc1ccc(CC2SC(=O)NC2=O)cc1)c1ccccn1` (racemic) [Racemic rosiglitazone, 5-(4-{2-[methyl (pyridin-2-yl)amino]ethoxy]benzyl}-1,3-thiazolidine-2,4-dione, reference compound], for which the “BAL cell influx” value in data set [1] (setting [9]) is “significantly inhibited”. Moreover, in data set [1] (setting [10]), the “BAL neutrophil numbers induced” value is given as “significantly inhibited”.

As to `CN(CCOc1ccc(C[C@@H]2SC(=O)NC2=O)cc1)c1ccccn1.Cl` [Example 9, (5S)-5-(4-{2-[methyl(pyridin-2-yl)amino]ethoxy}benzyl)-1,3-thiazolidine-2,4-dione hydrochloride monohydrate], the “BAL cell influx” value in data set [1] (setting [7]) and in data set [1] (setting [9]) was “failed to inhibit” in each case. In addition, the “BAL neutrophil numbers induced” value in data set [1] (setting [8]) and in data set [1] (setting [10]) was “ineffective” in each case.
